Source: patent publication US6291470A, “Indole derivatives process for producing the same and medicinal uses of the same” (Toray Industries, Inc., priority 1992, dated 2001)

Legend:
[1] = target: T1, δ-opioid receptor (Mus musculus, UniProt P32300); assay: δ-opioid antagonist activity against DPDPE in mouse vas deferens (MVD); conditions: against DPDPE; test compound 100 nM, 20 min; read-out: Ke
T1 construct: from tissue; host or cells: vas deferens of male ddy mice
Summary of the method: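 Vas deferens from male ddy mice in Krebs-Henseleit at 37 °C (5% CO2/95% O2), field-stimulated at 0.1 Hz, 5.0 ms, isometric contraction recorded. IC50 dose ratio, Ke and Schild pA2 derived.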

[2] = target: T1, δ-opioid receptor; assay: Change in δ-antagonist activity against DPDPE with time in mouse vas deferens (MVD); conditions: for Ratio of IC50 Values / Kb: 173 and NTI at 20 nM, 174 and 5'-NTII at 100 nM; for Kb: read-out: Ke
Description: In this experiment, ddy male mice were used. In a Magnus' tube which is filled with Krebes-Henseleit solution (NaCl […]; KCl 4.7 mM; CaCl2 2.5 mM; KH2 PO4 1.1 mM; NaHCO3 25 mM; glucose 11 mM) kept at 37° C., and into which an atmosphere consisting of 5% carbon dioxide and 95% oxygen was flown, vas deferens taken from the animals was suspended. Electric stimulation was applied through ring-shaped platinum electrodes mounted on the upper and lower portions of the tube at a frequency of 0.1 Hz and 5.0 mS duration. The contraction of the tissue was recorded on polygraph using isometric transducer.
Then 100 nM of the test compound was added. Twenty minutes later, DPDPE was begun to be added cumulatively. The ratio of IC50 values in the presence and absence of the test compound, Ke value (the molar concentration of the test compound necessary for translating the dose-effect curve to the curve of twice dose) and pA2 value were determined. The pA2 value was determined by the method of Shild et al (Shild, H. O., Br. J. Pharmac. Chamotehr., 4, 277 (1949)). That is, the logarithm of the test compound (log[test compound]) was plotted along the abscissa and the logarithm of the value obtained by subtracting 1 from the ratio of IC50 values was plotted in the presence and absence of the test compound [log(dose ratio-1)] along the ordinate. The pA2 value was determined from the value on the abscissa when the value on the ordinate of the obtained line is 0.
Using MVD, the antagonist activities of compounds 173 and 174 against DPDPE were determined. The ratio of IC50 values, Ke values and pA2 values at 15 minutes, 30 minutes and 1 hour from the addition of the test compounds were calculated. Since the concentrations of the test compounds are different, the reciprocals of Ke values were plotted in FIGS. 1 and 2.

[3] = system: delayed type hypersensitivity; assay: Delayed type hypersensitivity suppression test using mice from which adrenal glands have been removed; assay type: in vivo, mouse; conditions: for % Suppression: subcutaneous, totally 8 days
Source text: The mechanism of immunosuppression of the compound of the present invention was examined using delayed type hypersensitivity suppression test using mice from which adrenal glands have been removed.
BALB/c mice (male, 7 weeks old) were used, and each group consisted of 4-5 mice. Spleen cells (1×10^7) obtained from a donor mouse (C57BL/6) was subcutaneously administered to sensitize the mice. On Day 7 from the sensitization, the spleen cells (5×10^6) of the donor were subcutaneously administered on the right footpad and spleen cells (5×10^6) obtained from a mouse of the same strain as the recipient mice were subcutaneously administered on the left footpad. Twenty four hours later, the thicknesses of the right and left footpads were measured with a dial thickness gage, and the difference in thicknesses of the right and left footpads before the induction of the reaction and 24 hours after the induction of the reaction was employed as the index of the degree of the reaction.
The adrenectomy was performed by cutting the back of each recipient mouse under anesthesia with ether before the sensitization and removing the adrenal gland. Sham operation was performed by cutting the back of each recipient mouse but not removing the adrenal gland.
The test compound was dissolved in 10% DMSO-water and was subcutaneously administered everyday from the day of sensitization to the day of induction of the reaction, totally 8 days. In the control group, 10% DMSO-water alone was administered in the same manner. The volume of administration was 10 ml/kg in both study groups and in the control groups.

T1 sequence (P32300 whole entry): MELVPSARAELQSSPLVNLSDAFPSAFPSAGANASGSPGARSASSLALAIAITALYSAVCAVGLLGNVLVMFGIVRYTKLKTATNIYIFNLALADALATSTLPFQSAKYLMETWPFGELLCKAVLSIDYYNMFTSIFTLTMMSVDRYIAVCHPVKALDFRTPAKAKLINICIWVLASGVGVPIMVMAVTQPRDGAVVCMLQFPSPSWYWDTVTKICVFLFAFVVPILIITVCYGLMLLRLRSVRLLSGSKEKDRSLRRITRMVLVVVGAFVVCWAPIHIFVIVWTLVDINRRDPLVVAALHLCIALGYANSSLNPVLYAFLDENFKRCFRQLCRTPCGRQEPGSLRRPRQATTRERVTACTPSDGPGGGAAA

Oc1ccc2c3c1O[C@H]1c4[nH]c5ccccc5c4C[C@@]4(O)[C@@H](C2)N(CC2CC2)CC[C@]314 [NTI, reference compound]
Kb [1]: 0.21 nM
Ratio of IC50 Values ([2]; 15 min): 96.3
Kb ([2]; 15 min): 0.21 nM
change of antagonist activity with time (in words) ([2]; 15 min to 1 hour): did not change
Ratio of IC50 Values ([2]; 30 min): 95.6
Kb ([2]; 30 min): 0.21 nM
Ratio of IC50 Values ([2]; 60 min): 83.7
Kb ([2]; 60 min): 0.24 nM
suppressive effect after removing adrenal gland (in words) ([3]; Adrenectomy vs sham): disappeared by removing adrenal gland
% Suppression ([3]; Adrenectomy): 0%
% Suppression ([3]; Sham Operation): 50%
